# Assay results published in PubChem BioAssay AID220 (DTP/NCI, 2004).
# “And” between values parts separate entries of the source, which are not always exact repeats. Identical values can stand only once. Records with an inconclusive call do not appear.
# Tested on: CD8F1 mice, subcutaneous mammary adenocarcinoma, T/C%
# Test: NCI In Vivo Anticancer Drug Screen. Data for tumor model Mammary Adenocarcinoma CD8F1 (subcutaneous) in CD8F1
# Settings: higher = larger tumour
# Outline: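 Compound-treated versus vehicle-treated mice with transplantable tumors; survival or tumor size compared as T/C.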
# [1] = endpoint: median tumor weight change, dose: 62.0 mg/kg/injection, schedule: Q01DX001 (ip), vehicle: saline with Tween-80
# [2] = endpoint: median tumor weight change, dose: 62.5 mg/kg/injection, schedule: Q01DX001 (ip), vehicle: saline with Tween-80
# [3] = endpoint: median tumor weight change, dose: 125.0 mg/kg/injection, schedule: Q01DX001 (ip), vehicle: saline with Tween-80
# [4] = endpoint: median tumor weight change, dose: 250.0 mg/kg/injection, schedule: Q01DX001 (ip), vehicle: saline with Tween-80
# [5] = endpoint: median tumor weight change, dose: 500.0 mg/kg/injection, schedule: Q01DX001 (ip), vehicle: saline with Tween-80
smiles,measurement,setting,value
Oc1cc2ccccc2c(-c2c(O)c(O)cc3ccccc23)c1O,T/C,"endpoint: median tumor weight (est.), dose: 25.0 mg/kg/injection, schedule: Q07DX005 (ip), vehicle: saline with Tween-80",67 % of control
same,T/C,"endpoint: median tumor weight (est.), dose: 100.0 mg/kg/injection, schedule: Q07DX005 (ip), vehicle: saline with Tween-80",55 % of control
same,T/C,"endpoint: median tumor weight (est.), dose: 200.0 mg/kg/injection, schedule: Q07DX005 (ip), vehicle: saline with Tween-80",109 % of control
CC[C@@]1(O)C[C@H](OC2CC(N(C)C)C(OC3CC(O)C(O[C@@H]4O[C@@H](C)C(=O)C=C4N)C(C)O3)C(C)O2)c2c(cc3c(c2O)C(=O)c2c(O)ccc(O)c2C3=O)[C@H]1C(=O)OC (some centres not stated),T/C,"endpoint: median tumor weight (est.), dose: 0.09 mg/kg/injection, schedule: Q07DX005 (ip), vehicle: suspension in saline",180 % of control
same,T/C,"endpoint: median tumor weight (est.), dose: 0.18 mg/kg/injection, schedule: Q07DX005 (ip), vehicle: suspension in saline",168 % of control
same,T/C,"endpoint: median tumor weight (est.), dose: 0.37 mg/kg/injection, schedule: Q07DX005 (ip), vehicle: suspension in saline",240 % of control
same,T/C,"endpoint: median tumor weight (est.), dose: 0.38 mg/kg/injection, schedule: Q07DX005 (ip), vehicle: suspension in saline",37 % of control
same,T/C,"endpoint: median tumor weight (est.), dose: 3.0 mg/kg/injection, schedule: Q07DX005 (ip), vehicle: suspension in saline",50 % of control and 69 % of control
same,T/C,"endpoint: median tumor weight (est.), dose: 1.0 micrograms/kg/injection, schedule: Q07DX005 (ip), vehicle: Klucel (hydroxypropylcellulose) (HPC)",106 % of control
same,T/C,"endpoint: median tumor weight (est.), dose: 4.0 micrograms/kg/injection, schedule: Q07DX005 (ip), vehicle: Klucel (hydroxypropylcellulose) (HPC)",123 % of control
O=C(O[Si](Cc1ccccc1)(Cc1ccccc1)Cc1ccccc1)N(CCCl)CCCl,T/C,[1],159 % of control
same,T/C,[2],98 % of control and 109 % of control
O=S(=O)(N=N/C=C1\C=CC=CN1O)c1cccs1,T/C,[3],76 % of control
same,T/C,[4],88 % of control
C/C(=N\NC(=S)N1CCN(c2ccccn2)CC1)c1ccccn1,T/C,"endpoint: median tumor weight change, dose: 12.5 mg/kg/injection, schedule: Q01DX001 (ip), vehicle: other",74 % of control
same,T/C,"endpoint: median tumor weight change, dose: 25.0 mg/kg/injection, schedule: Q01DX001 (ip), vehicle: other",76 % of control
same,T/C,"endpoint: median tumor weight change, dose: 50.0 mg/kg/injection, schedule: Q01DX001 (ip), vehicle: other",87 % of control
COc1ccc(CC2C(=O)NC(C)C(=O)N(C)C3C(=O)N(C)C(Cc4ccc(O)c(c4)Oc4ccc(cc4)C3O)C(=O)NC(C)C(=O)NC(C)C(=O)N2C)cc1 (configuration not stated),T/C,"endpoint: median tumor weight (est.), dose: 0.12 mg/kg/injection, schedule: Q07DX005 (ip), vehicle: suspension in saline",116 % of control
same,T/C,"endpoint: median tumor weight (est.), dose: 0.25 mg/kg/injection, schedule: Q07DX005 (ip), vehicle: suspension in saline",93 % of control
same,T/C,"endpoint: median tumor weight (est.), dose: 0.5 mg/kg/injection, schedule: Q07DX005 (ip), vehicle: suspension in saline",95 % of control
same,T/C,"endpoint: median tumor weight (est.), dose: 1.0 mg/kg/injection, schedule: Q07DX005 (ip), vehicle: suspension in saline",94 % of control
same,T/C,"endpoint: median tumor weight (est.), dose: 2.0 mg/kg/injection, schedule: Q07DX005 (ip), vehicle: suspension in saline",99 % of control
same,T/C,"endpoint: median tumor weight (est.), dose: 4.0 mg/kg/injection, schedule: Q07DX005 (ip), vehicle: suspension in saline",114 % of control
C=C(Cl)C(=NC(C)(C)C)Nc1ccccc1C,T/C,"endpoint: median tumor weight change, dose: 31.25 mg/kg/injection, schedule: Q01DX001 (ip), vehicle: Klucel (hydroxypropylcellulose) (HPC)",86 % of control
same,T/C,"endpoint: median tumor weight change, dose: 62.5 mg/kg/injection, schedule: Q01DX001 (ip), vehicle: Klucel (hydroxypropylcellulose) (HPC)",85 % of control
CC(C)NC(=O)OCc1c(COC(=O)NC(C)C)c(-c2ccc(Cl)c(Cl)c2)n2c1CCC2,T/C,"endpoint: median tumor weight (est.), dose: 12.5 mg/kg/injection, schedule: Q07DX005 (ip), vehicle: distilled water + Tween-80",67 % of control
same,T/C,"endpoint: median tumor weight (est.), dose: 25.0 mg/kg/injection, schedule: Q07DX005 (ip), vehicle: distilled water + Tween-80",120 % of control
same,T/C,"endpoint: median tumor weight (est.), dose: 50.0 mg/kg/injection, schedule: Q07DX005 (ip), vehicle: distilled water + Tween-80",21 % of control
same,T/C,"endpoint: median tumor weight (est.), dose: 100.0 mg/kg/injection, schedule: Q07DX005 (ip), vehicle: distilled water + Tween-80",6 % of control
CCC(=O)O[C@H]1CC[C@H]2[C@@H]3CCC4=CC(=O)CC[C@]4(C)[C@H]3CC[C@]12C,T/C,"endpoint: median tumor weight (est.), dose: 160.0 mg/kg/injection, schedule: Q07DX005 (ip), vehicle: Klucel (hydroxypropylcellulose) (HPC)",99 % of control
same,T/C,"endpoint: median tumor weight (est.), dose: 640.0 mg/kg/injection, schedule: Q07DX005 (ip), vehicle: Klucel (hydroxypropylcellulose) (HPC)",48 % of control
ClC1=C(Cl)C(Cl)=C(Cl)C1=Cc1ccccc1,T/C,"endpoint: median tumor weight change, dose: 31.0 mg/kg/injection, schedule: Q01DX001 (ip), vehicle: saline with Tween-80",100 % of control
same,T/C,[1],63 % of control
same,T/C,"endpoint: median tumor weight change, dose: 150.0 mg/kg/injection, schedule: Q01DX001 (ip), vehicle: saline with Tween-80",33 % of control
same,T/C,"endpoint: median tumor weight change, dose: 300.0 mg/kg/injection, schedule: Q01DX001 (ip), vehicle: saline with Tween-80",73 % of control
CSC1SCC2C(=O)N(C)C(C(C)C)C(=O)OCC(NC(=O)c3cnc4ccccc4n3)C(=O)NC(C)C(=O)N(C)C1C(=O)N(C)C(C(C)C)C(=O)OCC(NC(=O)c1cnc3ccccc3n1)C(=O)NC(C)C(=O)N2C (configuration not stated),T/C,"endpoint: mean tumor weight, dose: 7.5 micrograms/kg/injection, schedule: Q07DX005 (ip), vehicle: saline",67 % of control
same,T/C,"endpoint: mean tumor weight, dose: 15.0 micrograms/kg/injection, schedule: Q07DX005 (ip), vehicle: saline",83 % of control
same,T/C,"endpoint: median tumor weight (est.), dose: 7.5 micrograms/kg/injection, schedule: Q07DX005 (ip), vehicle: saline",82 % of control
same,T/C,"endpoint: median tumor weight (est.), dose: 15.0 micrograms/kg/injection, schedule: Q07DX005 (ip), vehicle: saline",67 % of control
same,T/C,"endpoint: median tumor weight (est.), dose: 30.0 micrograms/kg/injection, schedule: Q07DX005 (ip), vehicle: saline",97 % of control
same,T/C,"endpoint: median tumor weight (est.), dose: 60.0 micrograms/kg/injection, schedule: Q07DX005 (ip), vehicle: saline",117 % of control
same,T/C,"endpoint: median tumor weight (est.), dose: 120.0 micrograms/kg/injection, schedule: Q07DX005 (ip), vehicle: saline",76 % of control
Cc1ccc(N)c(N)c1,T/C,[3],65 % of control
same,T/C,[4],48 % of control
same,T/C,[5],75 % of control
NCC1CCC(C(=O)O)CC1 (configuration not stated),T/C,[3],63 % of control
same,T/C,[4],86 % of control
same,T/C,[5],36 % of control
same,T/C,"endpoint: median tumor weight change, dose: 1000.0 mg/kg/injection, schedule: Q01DX001 (ip), vehicle: saline with Tween-80",97 % of control
same,T/C,"endpoint: median tumor weight change, dose: 2000.0 mg/kg/injection, schedule: Q01DX001 (ip), vehicle: saline with Tween-80",62 % of control
[N-]=[N+]=CC(=O)CCC(N)C(=O)O (configuration not stated),T/C,"endpoint: median tumor weight (est.), dose: 3.12 mg/kg/injection, schedule: Q04DX005 (ip), vehicle: saline",22 % of control and 43 % of control
same,T/C,"endpoint: median tumor weight (est.), dose: 6.25 mg/kg/injection, schedule: Q04DX005 (ip), vehicle: saline",31 % of control and 56 % of control
same,T/C,"endpoint: median tumor weight (est.), dose: 12.5 mg/kg/injection, schedule: Q04DX005 (ip), vehicle: saline",30 % of control and 50 % of control
same,T/C,"endpoint: median tumor weight (est.), dose: 12.5 mg/kg/injection, schedule: Q07DX004 (ip), vehicle: saline",85 % of control and 105 % of control
same,T/C,"endpoint: median tumor weight (est.), dose: 12.5 mg/kg/injection, schedule: Q07DX005 (ip), vehicle: saline",23 % of control and 30 % of control
same,T/C,"endpoint: median tumor weight (est.), dose: 25.0 mg/kg/injection, schedule: Q01DX001 (ip), vehicle: saline",35 % of control
same,T/C,"endpoint: median tumor weight (est.), dose: 25.0 mg/kg/injection, schedule: Q07DX004 (ip), vehicle: saline",23 % of control and 34 % of control
same,T/C,"endpoint: median tumor weight (est.), dose: 25.0 mg/kg/injection, schedule: Q07DX005 (ip), vehicle: saline",47 % of control
same,T/C,"endpoint: median tumor weight (est.), dose: 50.0 mg/kg/injection, schedule: Q01DX001 (ip), vehicle: saline",35 % of control
same,T/C,"endpoint: median tumor weight (est.), dose: 50.0 mg/kg/injection, schedule: Q07DX004 (ip), vehicle: saline",21 % of control and 31 % of control
same,T/C,"endpoint: median tumor weight (est.), dose: 50.0 mg/kg/injection, schedule: Q07DX005 (ip), vehicle: saline",16 % of control and 33 % of control
same,T/C,"endpoint: median tumor weight (est.), dose: 100.0 mg/kg/injection, schedule: Q01DX001 (ip), vehicle: saline",43 % of control
same,T/C,"endpoint: median tumor weight (est.), dose: 100.0 mg/kg/injection, schedule: Q07DX005 (ip), vehicle: saline",6 % of control
O=C1[C@H]2CCC[C@H]2[C@H]2CCC[C@@H]12,T/C,[2],51 % of control
same,T/C,[3],44 % of control
same,T/C,[4],60 % of control
same,T/C,[5],35 % of control
